# Assays:
# [1] = system: cell-surface sLe^X of LS180 cells; experiment: Flow cytometry of cell-surface sLe^X (CSLEX-1); type: cell-based, human; conditions: 50 μM
# Procedure: Peracetylated forms of GlcNAcβ1,3Galβ-O-naphthalenemethanol (AcGnG-NM) and Galβ1,3Galβ-O-naphthalenemethanol (AcGG-NM) were prepared as described. Sarkar, et al., Carbohydr. Res., 329, 287-300, 2000. The compounds were dissolved in dimethylsulfoxide (DMSO) and added to growth medium to achieve the concentrations indicated in the figures. The supplemented medium was then exchanged for the medium in established cultures of cells in order to avoid lysis caused by adding concentrated DMSO directly to the plates. The final concentration of DMSO was adjusted to ≦0.5% (v/v). After the specified number of days, the cells were harvested with 2 mM EDTA in PBS (20 min) and used for the following experiments.
# Cell Sorting. To detect the presence or absence of the relevant carbohydrate determinants, cells were stained with CSLEX-1 (anti-sLe^X, 5 μg/mL, Becton-Dickinson) or CA-19-9 ([…], 14.5 μg/mL, Chemicon) and analyzed by flow cytometry (FACScan Becton-Dickinson, Franklin Lakes, N.J.). […]
# Treatment of LS180 cells with AcGnG-NM reduces cell-surface sLe^X, but not sLe^a. […] LS180 cells were grown in the presence of 50 μM AcGnG-NM, harvested with EDTA, stained with monoclonal antibodies (CSLEX-1, anti-sLe^X and CA19-9, anti-sLe^a) as indicated and analyzed by flow cytometry (Materials and Methods). […]
# LS180 cells [2] = experiment: Metastatic lung tumor formation in SCID mice (LS180); type: in vivo
# Procedure: Tumor formation. LS180 cells were grown in the presence or absence of 50 μM AcGnG-NM for 6 days, harvested with EDTA, and resuspended in sterile PBS. Approximately 3×10^5 tumor cells in 150 μl PBS were injected into the lateral tail vein of anesthetized 7 week-old immunodeficient mice (Fox Chase SCID; Charles River). The mice were then maintained in microbe-free housing with free access to standard laboratory chow and water, and inspected regularly for any signs of distress. After 4 weeks, mice were euthanized by CO2 asphyxiation under anesthesia, and lungs, livers, brains, kidneys/adrenals, and spleens were fixed in Bouin's solution (Sigma) for 6 hr followed by transfer to 70% ethanol. Lungs for each animal were inspected under a dissecting microscope for the total number of surface tumors. Histologic sections (hematoxylin/eosin) were examined for tumor foci, and representative photomicrographs were taken. The other organs were also reviewed histologically for any tumor foci.
# Impairment of metastatic tumor formation. Prior studies have shown that deletion of P-selectin in mice alters the tumorigenicity of hematogenously distributed LS180 cells. Kim et al., Proc. Natl. Acad. Sci. USA, 95: 9325-9330, 1998. […] After 4 weeks, the animals were sacrificed and formation of lung tumor foci was assessed at necropsy by counting nodules on the lung surface and in histologic sections.
# LS180 cells [3] = experiment: Biodistribution of pretreated radiolabeled tumor cells in mice; type: in vivo
# Procedure: Biodistribution studies in mice. LS180 cells were grown for 3 days in the presence or absence of 50 μM AcGnG-NM. [^3H-methyl]thymidine (10 μCi/ml, NEN Life Sciences Products) was added to the medium, and cells were incubated for another 3 days. The cells were then harvested with EDTA, resuspended in sterile 0.9% saline, and injected (1×10^5 cells/100 μL) into the lateral tail vein of anesthetized (inhaled methoxyflurane, Janssen Pharmaceuticals) 6-8 week-old wildtype C57BL/6 mice or P-selectin deficient mice bred on the same background (Jackson Laboratory). Mayadas et al., Cell, 74: 541-554, 1993. […] The organs were digested at 55° C. overnight with Proteinase K (0.15 μg/ml, Boehringer Mannheim) in 2 mL PBS containing 1% sodium dodecyl sulfate, and homogenized by repeated passage through an 18 gauge needle. The amount of radioactive DNA in the blood and the organ extracts was then determined using an Easy DNA Kit (Invitrogen) and liquid scintillation spectrometry. The total counts in blood were estimated by assuming a total blood volume of 2 mL per mouse. Proper attention has been given to experimental ethical considerations towards animals as prescribed by the Animal Subjects Program at the University of California.
# Altered biodistribution of AcGnG-NM treated tumor cells. The lung is the major “first-pass” adhesion target for tumor cells introduced into the venous circulation. […] Radiolabeled cells were injected into the lateral tail vein of C57BL/6 mice, and allowed to circulate for 3 hours. Mice were sacrificed and DNA was extracted from organ homogenates and whole blood. The counts were normalized to the total recovered counts, which typically represented 80-90% of the injected samples. In FIG. 6A, each value represents the average recoveries from 4 wildtype mice±standard deviation from the mean. In FIG. 6B, the experiment was repeated in P-selectin deficient C57BL/6 mice that were injected with either control- or AcGnG-NM-treated LS180 cells. […]
# [4] = wildtype C57BL/6 mice, 3 hours, cells pretreated with 50 μM
substance,measurement,setting,value
"GlcNAcβ1,3Galβ-O-naphthalenemethanol [AcGnG-NM]",cell-surface sLe^X,[1],significant inhibition
same,lung tumor foci,"LS180 cells [2]; cells pretreated with 50 μM for 6 days, 4 weeks, n=8, p<0.0002",less numerous
same,tumor size,LS180 cells [2]; treated versus untreated cells,approximately the same
same,distribution of treated versus untreated cells,LS180 cells [3]; P-selectin deficient mice,no difference
same,counts recovered in the blood compartment,LS180 cells [3]; [4],corresponding increase
same,seeding of the lungs,LS180 cells [3]; [4],substantially reduced

# Reference: patent US7772192B2, “Compositions and methods for treatment of disease with acetylated disaccharides” (The Regents of the University of California, priority 2003, dated 2010)
